In US6803378B2, “HIV integrase inhibitors” (Bristol-Myers Squibb Company, priority 2000, dated 2004):

Columns and labels:
HIV-1 integrase = molecular target: T1, HIV-1 integrase (Human immunodeficiency virus type 1 group M subtype B, UniProt P04585); assay: In vitro activity against integrase, Method A (immobilized precleaved substrate DNA, biotinylated target DNA, 96 well plate); format: biochemical; conditions: Assay Method A, read-out: Percent inhibition of HIV Integrase at 70 uM
T1 construct: Purified recombinant HIV-1 integrase was incubated with immobilized precleaved substrate DNA
Description: (§1) The in vitro activities, against integrase, of compounds of the present invention were measured by one of the following three methods.
In Method A, the in vitro activity against integrase was measured in a manner which was similar to previously disclosed methods (cf. Hazuda, D. J.; Felock, P.; Witmer, M.; Wolfe, A.; Stillmock, K.; Grobler, J. A.; Espeseth, A.; Gabryelski, L.; Schleif, W.; Blau, C.; Miller, M. D. Science, 2000, 287, 646) Purified recombinant HIV-1 integrase was incubated with immobilized precleaved substrate DNA in a 96 well plate for 20 min at 37° C. After the integration complex was formed, compounds at desired concentrations were added to the wells followed by a 10 min incubation at 37° C. Biotinyted Target DNA was then added and the reaction was carried out for an additional 1 hour at 37° C. Wells were then washed thoroughly to remove any free DNA and integration activity was measured by using a commercial kit to quantitate the amount of biotinyted target DNA integrated into the substrate.

HIV Integrase [1] = molecular target: T2, HIV Integrase (Human immunodeficiency virus type 1 group M subtype B, UniProt P04585); assay: In vitro activity against integrase, Method B (SPA assay); format: biochemical; conditions: read-out: Percent inhibition of HIV Integrase at 70 uM
T2 construct: 0.26 ng of recombinant integrase was then incubated with the beads
Description: as §1
(§2) In Method B, the in vitro activity against integrase was measured by binding, for each reaction, 5 pmole of biotin labeled substrate DNA to 100 ug of Streptavidin coated PVT SPA beads (Amersham Pharmacia Biotech). 0.26 ng of recombinant integrase was then incubated with the beads for 90 min at 37° C. Unbound enzyme was removed by washing the complex followed by addition of inhibitors and 0.1 fmol of P33 labeled target DNA. Reaction was stopped by adding EDTA to a final concentration of 10 mM. Samples were counted in TopCountNXT (Packard) and the CPM was used as a measure of integration. Reaction condition was as described in A. Engelman and R. Craigie, J. Virol. 69, 5908-5911 (1995). The sequences of substrate and target DNA were described in Nucleic Acid Research 22, 1121-1122 (1994).

HIV Integrase [2] = molecular target: T2, HIV Integrase; assay: In vitro activity against integrase, Method C (electroluminescence, ECL assay); format: biochemical; conditions: read-out: Percent inhibition of HIV Integrase at 70 uM
Description: as §1, §2
Method C (Electroluminesence Assay):
The ECL assay of Method C is essentially the same as the SPA assay of Method B, except that 0.5 μg of Streptavidin coated magnetic beads and 0.5 pmol Ru labeled target DNA were used for each reaction instead of SPA beads and P33 labeled DNA. The samples were read in a M8 analyzer (IGEN International, Inc).

Structure (SMILES) | melting point | inhibition at 70 µM (HIV Integrase [2]) [%] | further results
O=C(O)/C(O)=C/C(=O)N(Cc1ccc(Cl)cc1)Cc1ccc(Cl)c(Cl)c1 | 152 °C (dec.) | – | –
CN(Cc1ccccc1Cl)C(=O)/C=C(\O)C(=O)O [Compound 10, 3-[(2-Chloro-benzyl)-methyl-carbamoyl]-2-hydroxy-acrylic acid] | 84 to 86 °C | – | inhibition at 70 µM (HIV-1 integrase): 79%
O=C(O)/C(O)=C/C(=O)N(Cc1ccc(F)cc1)Cc1ccc(F)cc1 [Compound 11, 3-[Bis-(4-fluoro-benzyl)-carbamoyl]-2-hydroxy-acrylic acid] | > 147 °C (dec.) | – | inhibition at 70 µM (HIV Integrase [1]): 97%
O=C(O)/C(O)=C/C(=O)N(CCCc1ccccc1Cl)Cc1ccc(F)cc1 [Compound 87, 3-[[3-(2-Chloro-phenyl)-propyl]-(4-fluoro-benzyl)-carbamoyl]-2-hydroxy-acrylic acid] | – | 99 | –
CCCNC(=O)/C(O)=C/C(=O)N(Cc1ccc(F)cc1)Cc1ccc(F)cc1 [Compound 144, 2-Hydroxy-but-2-enedioic acid 4-[bis-(4-fluoro-benzyl)-amide] 1-propylamide] | – | 83 | –
O=C(CCCCCNC(=O)/C(O)=C/C(=O)N(CCCc1ccccc1Cl)Cc1ccc(F)cc1)NS(=O)(=O)c1ccccc1 [Compound 147, 2-Hydroxy-but-2-enedioic acid 1-[(6-benzenesulfonylamino-6-oxo-hexyl)-amide] 4-[[3-(2-chloro-phenyl)-propyl]-(4-fluoro-benzyl)-amide]] | – | 98 | –
